The results in this text go back to US20240009265A1, “METHODS OF TREATMENT COMPRISING STABLE REDUCED GLUTATHIONE” (Blue Sky Innovation, LLC, priority 2020, published 2024).

For data set [1], the system named is subjects with chronic shingles and post-herpetic neuralgia (PHN). The data set can be described thus: Topical reduced glutathione in a liposomal carrier in chronic shingles / post-herpetic neuralgia. Type of data set: in vivo, human. From the text:
Most the subjects at the time of the first visit reported significant depression and suicidal thoughts. Most subjects also reported giving up hope. […] The self-rated pain averaged a 7, but many subjects reported that when a break-out was occurring, the pain could spike to a 10. Videos and pictures were taken where and when appropriate with proper releases documented.

Data set [2] has as its system subject with diabetic peripheral neuropathy (DN). As to the kind of experiment: Topical and oral rGSH in diabetic peripheral neuropathy (case study). The settings on record: for outcome of diabetic neuropathy: person, 13 weeks of therapy.
The test system of data set [3] is subjects with chemotherapy-induced peripheral neuropathy (CIPN). The protocol:
Subjects were treated with topical and oral rGSH in a natural liposomal carrier after initial consultation. Subjects began treatment prior to their second visit. Follow-up consultations with subjects occurred weekly to monthly according to symptoms and needs.
Procedures for measuring CIPN were based on interviews performed by a medical professional with subjects. The physician measured nerve sensitivity in some of the subjects using in-office medical instruments.

The test system of data set [4] is subject diagnosed with tardive dyskinesia (TD). As to the method:
Reduced glutathione was administered to the subject 5 times per day in a solution in the amount of about 18.25 mg per spray or about 91.25 mg per administration. The subject cleaned the area of application with a disinfectant wipe before topical application of the reduced glutathione. The topical rGSH was administered in 5 sprays of rGSH for a total dosage of about 91.25 mg. The administered rGSH dried for about 30 seconds before the subject was re-clothed. The facial movements and body movements of the subject were filmed once per week to analyze progression or loss of TD symptoms.
Topical rGSH was prescribed for 5 applications of 5 sprays each day to: (a) their right arm, (b) right jaw and masseter area, and (c) their spine. The total amount of administered rGSH was a total of 25 squirts per day (which is approximately 456 mg of rGSH via a Glutathione supplement) as applied by the nursing staff.

The subject of data set [5] is subject with partial and full thickness burn lesions. As to the method:
The subject was treated with topical applications of rGSH. The subject was administered the rGSH 5-8 times a day over a 3-month period.
A subject had accidentally burned themself on an outdoor grill. The subject was treated with rGSH at 5-8 times a day with topical application. The subject was also treated with Cephalexin 500 mg in case of infection.

The subject of data set [6] is fibromyalgia syndrome (FMS) subjects. The conditions noted are these: 43 subjects; rGSH with low copper diet and support product. From the text:
43 fibromyalgia subjects underwent dietary changes supplements including: (a) a low copper diet, (b) a support product containing molybdenum, boron, zinc chelate, pyridoxine, N-Acetyl L-Cysteine, L-serine and L-glutamine, and (c) rGSH.

[7] abbreviates: after 35 days of rGSH treatment.

Like-named read-outs stand apart in the source and are kept apart here.

Consider `Nc1nc2c(ncn2COCCO)c(=O)[nH]1` [acyclovir, reference compound], for which the “effect of earlier chronic medication on shingles/PHN pain” value in data set [1] (chronic doses before rGSH treatment) is “without substantial ameliorative effect”.
As to `C[C@]12CC[C@H]3[C@@H](CCC4=CC(=O)CC[C@@]43C)[C@@H]1CC[C@@H]2O` [injectable testosterone, testosterone, reference compound], in data set [2] (modest dose, before rGSH treatment), the “effect on the subject's issues (insulin sensitivity, muscle strength, neuropathy)” value is “did not have a substantial effect”.
In the case of `N[C@@H](CCC(=O)N[C@@H](CS)C(=O)NCC(=O)O)C(=O)O` [rGSH, reduced glutathione], the “time to major resolution of symptoms” value in data set [3] (Patient 5-C) is given as at most 3 days. Besides, the “pain in the feet” value in data set [3] (Patient 5-C, Day 63) is on record as “no longer felt pain in the feet”. Besides, the CIPN symptoms result in data set [3] (Patient 5-D, Day 31) is recorded as “substantial decrease in symptoms”; in data set [3] (Subject 5-B, Day 7) it was “improved symptoms”. Besides, the “feeling better since starting treatment” value in data set [3] (Patient 5-D, Day 38) is “about 70%”. For the same compound, the decrease in symptoms in data set [3] (Patient 5-D, Day 52) worked out at 80%. In addition, the “CIPN symptoms resolved, as reported by the subject” value in data set [3] (Subject 5-A, Day 12, only took rGSH orally) is on record as “about 40%”. Also, the “improvement of symptoms since using rGSH” value in data set [3] (Subject 5-B, Day 42) turned out to be 50%. Besides, the “resolution of CIPN symptoms” value in data set [3] (Subject 5-B, Day 84) turned out to be 70%; in data set [3] (Subject 5-B, Day 112), 70%; in data set [3] (Subject 5-B, Day 245, rGSH stopped for a few months), 70%. In addition, in data set [2] (after 13 weeks of therapy), the “renal or liver functions” value is recorded as “No effect”. The HBA1C in data set [2] (after 13 weeks of therapy, 10.0% before) is given as 10.1%. In addition, the “neuropathy in the hands” value in data set [2] (oral and topical rGSH, weekly examination) is reported as “complete resolution in their hands in the first few weeks”. The “outcome of diabetic neuropathy” value is listed as “resolved substantially” in data set [2] and “resolved” in data set [2] (listed as stable rGSH). In data set [2] (seven other subjects treated with stable rGSH), the “diabetic neuropathy in seven other subjects” value was “complete resolution”. Moreover, in data set [4] (after 10 weeks of treatment), the “outcome of TD” value was “resolved completely”. Moreover, the “interval between involuntary jaw movements (masseter muscles)” value in data set [4] (after 21 days of topical rGSH, about 456 mg/day, before treatment about every 1-2 seconds) lay within 4 to 5 s. Moreover, the “interval between involuntary arm movements” value in data set [4] (after 21 days of topical rGSH, before treatment about every 1-2 seconds) was in the range of 4 to 5 s. Also, the ambulation entry in data set [4] (after 42 days) was “no longer used assistance for walking up and down stairs”. In addition, the “interval between facial and arm movements” value in data set [4] (after 42 days of topical rGSH) is around 10 s. Besides, the “pain in shoulder, back and jaw” value in data set [4] (after 42 days, compared with the 21 day period) is “substantially decreased”. Moreover, the “involuntary facial or arm movement” value in data set [4] (after 70 days) is reported as “no longer had involuntary facial or arm movement”. In data set [4] (after 70 days), the pain result was “substantially free of pain”. In addition, the TD symptoms result in data set [4] (after 70 days of rGSH administration) was “substantially free of symptoms”. Also, the burn pain entry in data set [5] (10 weeks after the burn) is given as “no longer had any pain”; in data set [5] (after 21 days of rGSH treatment), “tolerable”. In addition, the “infection of the burn” value in data set [5] (setting [7]) is “No infection had occurred”. In addition, the “state of the wound” value is “dead skin and eschar were gone and new skin has started to epithelialize” in data set [5] (setting [7]); “nearly healed” in data set [5] (after 49 days of treatment). In data set [5] (day of the burn), the “burn pain within an hour of application” value was “nearly dissipated”. Further, the “time until pain was subsiding after topical application” value in data set [5] (day of the burn) is at most 30 min. In addition, in data set [5] (topical rGSH 5-8 times per day over a 3-month period), the “course of burn healing” value was “Healing commenced immediately with minimal pain, minimal scarring, no infection, and minimal drainage”. Besides, the FMS symptoms entry in data set [6] is “substantial resolution”. In addition, the “pain in fibromyalgia subjects” value in data set [6] is “substantially reduced pain”. The “time to nearly complete resolution of symptoms” value in data set [1] (one subject with shingles and PHN for about nine years) is at most 34 min. Further, the “share of subjects with nearly complete resolution only over a more extended period” value in data set [1] (over a hundred patients and volunteers with shingles) is “Less than 5%”. In addition, in data set [1] (the subjects with slower response), the “extended period to nearly complete resolution” value lay in the range of 2 to 5 days.
